Measurements: patent US20100311714A1, “1H-IMIDAZO[4,5-c]QUINOLINONE COMPOUNDS” (priority 2009, published 2010)
Where two headings read alike, the source gives them in different places.

Experiments:
mTOR = target: T1, mTOR (Homo sapiens, UniProt P42345); assay: Biochemical assay for m-TOR by TR-FRET
T1 construct: purchased Invitrogen Corporation (Carlsbad/Calif., USA) PV4753
How it was run: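 mTOR (0.5 nM) phosphorylates GFP-4EBP1 (400 nM) with 8 μM ATP at rt in 50 mM HEPES pH 7.5, 10 mM MnCl2, 50 mM NaCl, 1 mM EGTA, 1 mM DTT; compounds 0.003–10 μM final. EDTA stop with Tb-anti-p4EBP1[pT46] antibody (0.5 nM); TR-FRET read after 15 min against no-enzyme and vehicle controls.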

[1] = system: PKB Ser473 phosphorylation in Rat1-myr-HA-p110 beta cells; assay: Reverse protein array, PKB Ser473 phosphorylation in Rat1-myr-HA-p110 beta cells; assay type: cell-based; details: Rattus norvegicus, 0.5 h, 30 minutes compound incubation, read-out: p-PKB/IC50_beta
[2] = system: PKB Ser473 phosphorylation in Rat1-myr-HA-p110 alpha cells; assay: Reverse protein array, PKB Ser473 phosphorylation in Rat1-myr-HA-p110 alpha cells; assay type: cell-based; details: Rattus norvegicus, 0.5 h, 30 minutes compound incubation, read-out: p-PKB/IC50_alpha

T1 sequence (P42345 1360-2549 limits assumed): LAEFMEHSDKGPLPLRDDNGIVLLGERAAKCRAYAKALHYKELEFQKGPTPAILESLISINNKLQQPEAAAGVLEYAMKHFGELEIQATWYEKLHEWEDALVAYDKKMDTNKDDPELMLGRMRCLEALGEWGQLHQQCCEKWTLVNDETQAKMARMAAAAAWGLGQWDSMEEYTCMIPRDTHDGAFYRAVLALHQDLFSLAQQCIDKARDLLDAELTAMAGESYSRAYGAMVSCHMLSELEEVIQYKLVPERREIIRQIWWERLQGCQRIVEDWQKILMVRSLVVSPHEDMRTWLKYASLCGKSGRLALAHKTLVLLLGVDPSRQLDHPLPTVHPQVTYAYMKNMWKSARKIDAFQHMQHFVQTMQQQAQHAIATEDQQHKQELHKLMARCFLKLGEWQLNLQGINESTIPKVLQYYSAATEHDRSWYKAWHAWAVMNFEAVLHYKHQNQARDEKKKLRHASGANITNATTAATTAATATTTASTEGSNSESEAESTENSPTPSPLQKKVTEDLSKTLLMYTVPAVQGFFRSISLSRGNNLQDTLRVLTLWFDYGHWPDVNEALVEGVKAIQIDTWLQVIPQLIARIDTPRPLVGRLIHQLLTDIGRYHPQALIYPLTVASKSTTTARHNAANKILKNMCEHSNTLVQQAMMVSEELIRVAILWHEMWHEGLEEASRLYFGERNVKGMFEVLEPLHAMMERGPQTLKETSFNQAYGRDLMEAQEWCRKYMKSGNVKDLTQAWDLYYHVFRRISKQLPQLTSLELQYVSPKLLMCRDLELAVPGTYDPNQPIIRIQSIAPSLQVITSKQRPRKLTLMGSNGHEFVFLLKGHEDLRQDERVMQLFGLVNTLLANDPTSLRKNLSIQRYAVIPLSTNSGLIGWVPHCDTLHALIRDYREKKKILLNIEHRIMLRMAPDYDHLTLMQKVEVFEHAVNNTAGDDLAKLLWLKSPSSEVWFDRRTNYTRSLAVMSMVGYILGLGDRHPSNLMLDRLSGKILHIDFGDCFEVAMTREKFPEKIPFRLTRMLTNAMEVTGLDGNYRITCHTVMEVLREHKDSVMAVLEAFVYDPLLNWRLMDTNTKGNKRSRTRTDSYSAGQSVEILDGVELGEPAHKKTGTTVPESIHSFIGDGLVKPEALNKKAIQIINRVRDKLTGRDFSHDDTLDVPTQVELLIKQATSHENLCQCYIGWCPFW

`CCNc1cc(-c2ccc3ncc4c(c3c2)n(-c2ccc(N(C)CC)nc2C)c(=O)n4C)cnc1C` [Example 12.2, 8-(5-Ethylamino-6-methyl-pyridin-3-yl)-1-[6-(ethyl-methyl-amino)-2-methyl-pyridin-3-yl]-3-methyl-1,3-dihydro-imidazo[4,5-c]quinolin-2-one] was tested, and the IC50 (mTOR; read-out: EPK_mTOR/IC50) was 0.007 µM, the IC50 [1] was less than 0.00457 µM and the IC50 [2] was less than 0.00457 µM.

`Cc1ccc(-n2c(=O)n(C)c3cnc4ccc(-c5cncc(NC(C)C)c5)cc4c32)c(C)n1` [Example 14.8, 1-(2,6-Dimethyl-pyridin-3-yl)-8-(5-isopropylamino-pyridin-3-yl)-3-methyl-1,3-dihydro-imidazo[4,5-c]quinolin-2-one] showed an IC50 (mTOR; read-out: EPK_mTOR/IC50) of 0.028 µM, an IC50 [1] of 0.0614 µM and an IC50 [2] of 0.009 µM.

Molecule `CCNc1cc(-c2ccc3ncc4c(c3c2)n(-c2ccc(N3CC(F)(F)C3)nc2C)c(=O)n4C)cnc1CO` [Example 24.3, 1-[6-(3,3-Difluoro-azetidin-1-yl)-2-methyl-pyridin-3-yl]-8-(5-ethylamino-6-hydroxymethyl-pyridin-3-yl)-3-methyl-1,3-dihydro-imidazo[4,5-c]quinolin-2-one] has an IC50 (mTOR; read-out: EPK_mTOR/IC50) of less than 0.003 µM, an IC50 [1] of less than 0.00457 µM and an IC50 [2] of 0.0059 µM.

Molecule `COc1cc(-c2ccc3ncc4c(c3c2)n(-c2ccc(N(C)C)nc2C)c(=O)n4C)cnc1CO` [Example 19.4, 1-(6-Dimethylamino-2-methyl-pyridin-3-yl)-8-(6-hydroxymethyl-5-methoxy-pyridin-3-yl)-3-methyl-1,3-dihydro-imidazo[4,5-c]quinolin-2-one] has an IC50 (mTOR; read-out: EPK_mTOR/IC50) of 0.042 µM, an IC50 [1] of 0.0402 µM and an IC50 [2] of 0.0068 µM.

Molecule `CNc1ncc(-c2ccc3ncc4c(c3c2)n(-c2cccnc2C)c(=O)n4C)cn1` [Example 2.2, 3-Methyl-8-(2-methylamino-pyrimidin-5-yl)-1-(2-methyl-pyridin-3-yl)-1,3-dihydro-imidazo[4,5-c]quinolin-2-one] has an IC50 (mTOR; read-out: mTOR/IC50) of 0.008 µM, an IC50 [1] of 0.0147 µM and an IC50 [2] of 0.0159 µM.

Molecule `Cc1ncccc1-n1c(=O)n(C)c2cnc3ccc(-c4cnc5c(ccn5C)c4)cc3c21` [Example 2.14, 3-Methyl-1-(2-methyl-pyridin-3-yl)-8-(1-methyl-1H-pyrrolo[2,3-b]pyridin-5-yl)-1,3-dihydro-imidazo[4,5-c]quinolin-2-one] has an IC50 (mTOR; read-out: mTOR/IC50) of 0.024 µM, an IC50 [1] of 0.0131 µM and an IC50 [2] of 0.00738 µM.

With `COCCOc1ccc(-n2c(=O)n(C)c3cnc4ccc(-c5cnc(COC)c(OC)c5)cc4c32)c(C)n1` [Example 22.3, 1-[6-(2-Methoxy-ethoxy)-2-methyl-pyridin-3-yl]-8-(5-methoxy-6-methoxymethyl-pyridin-3-yl)-3-methyl-1,3-dihydro-imidazo[4,5-c]quinolin-2-one] the IC50 (mTOR; read-out: EPK_mTOR/IC50) was 0.14 µM, the IC50 [1] was 0.0776 µM and the IC50 [2] was 0.0242 µM.

For `COc1ccc(-c2ccc3ncc4c(c3c2)n(-c2cccnc2)c(=O)n4C)cc1OC` [Example 5.2, 8-(3,4-Dimethoxy-phenyl)-3-methyl-1-pyridin-3-yl-1,3-dihydro-imidazo[4,5-c]quinolin-2-one], the IC50 (mTOR; read-out: mTOR/IC50) was 0.232 µM, the IC50 [1] was 0.0503 µM and the IC50 [2] was 0.0181 µM.

For `CCOc1ccc(-c2ccc3ncc4c(c3c2)n(-c2ccc(NC(=O)COC)nc2C)c(=O)n4C)cn1` [Example 20.2, N-{5-[8-(6-Ethoxy-pyridin-3-yl)-3-methyl-2-oxo-2,3-dihydro-imidazo[4,5-c]quinolin-1-yl]-6-methyl-pyridin-2-yl}-2-methoxy-acetamide], the IC50 (mTOR; read-out: EPK_mTOR/IC50) was 0.154 µM, the IC50 [1] was 0.21 µM and the IC50 [2] was 0.05 µM.

Molecule `CCNc1cc(-c2ccc3ncc4c(c3c2)n(-c2ccc(N(C)CCOC)nc2C)c(=O)n4C)cnc1C` [Example 15.6, 8-(5-Ethylamino-6-methyl-pyridin-3-yl)-1-{6-[(2-methoxy-ethyl)-methyl-amino]-2-methyl-pyridin-3-yl}-3-methyl-1,3-dihydro-imidazo[4,5-c]quinolin-2-one] has an IC50 (mTOR; read-out: EPK_mTOR/IC50) of 0.006 µM, an IC50 [1] of 0.007 µM and an IC50 [2] of 0.0048 µM.

With `COc1nc(N2CCNCC2)ccc1-n1c(=O)n(C)c2cnc3ccc(-c4cnc(N(C)C)nc4)cc3c21` [Example 9.4, 8-(2-Dimethylamino-pyrimidin-5-yl)-1-(2-methoxy-6-piperazin-1-yl-pyridin-3-yl)-3-methyl-1,3-dihydro-imidazo[4,5-c]quinolin-2-one] the IC50 (mTOR; read-out: EPK_mTOR/IC50) was 0.009 µM, the IC50 [1] was 0.0196 µM and the IC50 [2] was 0.018 µM.

`Cc1nc(F)ccc1-n1c(=O)n(C)c2cnc3ccc(-c4cncc(N)c4)cc3c21` [Example 7.16, 8-(5-Amino-pyridin-3-yl)-1-(6-fluoro-2-methyl-pyridin-3-yl)-3-methyl-1,3-dihydro-imidazo[4,5-c]quinolin-2-one] showed an IC50 (mTOR; read-out: EPK_mTOR/IC50) of 0.11 µM, an IC50 [1] of 0.0233 µM and an IC50 [2] of 0.0303 µM.

For `CCOc1ccc(-c2ccc3ncc4c(c3c2)n(-c2cccnc2C)c(=O)n4C)cn1` [Example 2.1, 8-(6-Ethoxy-pyridin-3-yl)-3-methyl-1-(2-methyl-pyridin-3-yl)-1,3-dihydro-imidazo[4,5-c]quinolin-2-one], the IC50 (mTOR; read-out: mTOR/IC50) was 0.042 µM, the IC50 [1] was 0.0183 µM and the IC50 [2] was 0.00631 µM.

Work on `COc1ccc(-n2c(=O)n(C)c3cnc4ccc(-c5cnc(N)c(C(F)(F)F)c5)cc4c32)c(OC)n1` [Example 8.1, 8-(6-Amino-5-trifluoromethyl-pyridin-3-yl)-1-(2,6-dimethoxy-pyridin-3-yl)-3-methyl-1,3-dihydro-imidazo[4,5-c]quinolin-2-one] yielded an IC50 [1] of 0.0128 µM and an IC50 [2] of 0.00727 µM.

`CCNc1cc(-c2ccc3ncc4c(c3c2)n(-c2ccc(F)nc2C)c(=O)n4C)cnc1CO` [Example 7.9, 8-(5-Ethylamino-6-hydroxymethyl-pyridin-3-yl)-1-(6-fluoro-2-methyl-pyridin-3-yl)-3-methyl-1,3-dihydro-imidazo[4,5-c]quinolin-2-one] showed an IC50 (mTOR; read-out: EPK_mTOR/IC50) of less than 0.003 µM, an IC50 [1] of 0.01 µM and an IC50 [2] of less than 0.00457 µM.

For `CNc1ccc(-c2ccc3ncc4c(c3c2)n(-c2ccc(N(C)CCOC)nc2C)c(=O)n4C)cn1` [Example 15.4, 1-{6-[(2-Methoxy-ethyl)-methyl-amino]-2-methyl-pyridin-3-yl}-3-methyl-8-(6-methylamino-pyridin-3-yl)-1,3-dihydro-imidazo[4,5-c]quinolin-2-one], the IC50 (mTOR; read-out: EPK_mTOR/IC50) was 0.011 µM, the IC50 [1] was 0.0151 µM and the IC50 [2] was 0.0072 µM.

`COCCN(C)c1ccc(-n2c(=O)n(C)c3cnc4ccc(-c5cnc(CO)c(OC)c5)cc4c32)c(C)n1` [Example 15.9, 8-(6-Hydroxymethyl-5-methoxy-pyridin-3-yl)-1-{6-[(2-methoxy-ethyl)-methyl-amino]-2-methyl-pyridin-3-yl}-3-methyl-1,3-dihydro-imidazo[4,5-c]quinolin-2-one] gave an IC50 (mTOR; read-out: EPK_mTOR/IC50) of 0.119 µM, an IC50 [1] of 0.0404 µM and an IC50 [2] of 0.0108 µM.

`COCCN(C)c1ccc(-n2c(=O)n(C)c3cnc4ccc(-c5cncc(N)c5)cc4c32)c(C)n1` [Example 15.8, 8-(5-Amino-pyridin-3-yl)-1-{6-[(2-methoxy-ethyl)-methyl-amino]-2-methyl-pyridin-3-yl}-3-methyl-1,3-dihydro-imidazo[4,5-c]quinolin-2-one] gave an IC50 (mTOR; read-out: EPK_mTOR/IC50) of 0.011 µM, an IC50 [1] of 0.0232 µM and an IC50 [2] of 0.0051 µM.

`CCNc1cc(-c2ccc3ncc4c(c3c2)n(-c2ccc(OC)nc2Cl)c(=O)n4C)cnc1C` [Example 18.1, 1-(2-Chloro-6-methoxy-pyridin-3-yl)-8-(5-ethylamino-6-methyl-pyridin-3-yl)-3-methyl-1,3-dihydro-imidazo[4,5-c]quinolin-2-one] was tested, and the IC50 (mTOR; read-out: EPK_mTOR/IC50) was 0.013 µM and the IC50 [2] was less than 0.00457 µM.

`Cc1cc(F)ncc1-n1c(=O)n(C)c2cnc3ccc(-c4cnc5c(ccn5C)c4)cc3c21` [Example 16.5, 1-(6-Fluoro-4-methyl-pyridin-3-yl)-3-methyl-8-(1-methyl-1H-pyrrolo[2,3-b]pyridin-5-yl)-1,3-dihydro-imidazo[4,5-c]quinolin-2-one] gave an IC50 (mTOR; read-out: EPK_mTOR/IC50) of 0.622 µM and an IC50 [2] of 0.0184 µM.

Work on `Cc1nc(C(C)(C)O)ccc1-n1c(=O)n(C)c2cnc3ccc(-c4cncc(OC(C)C)c4)cc3c21` [Example 31.9, 1-[6-(1-Hydroxy-1-methyl-ethyl)-2-methyl-pyridin-3-yl]-8-(5-isopropoxy-pyridin-3-yl)-3-methyl-1,3-dihydro-imidazo[4,5-c]quinolin-2-one] yielded an IC50 (mTOR; read-out: EPK_mTOR/IC50) of 0.139 µM.

`COc1ccc(-c2ccc3ncc4c(c3c2)n(-c2ncccc2C)c(=O)n4C)cn1` [Example 3.13, 8-(6-Methoxy-pyridin-3-yl)-3-methyl-1-(3-methyl-pyridin-2-yl)-1,3-dihydro-imidazo[4,5-c]quinolin-2-one] gave an IC50 [1] of 0.945 µM and an IC50 [2] of 0.308 µM.

Molecule `COc1ccc(-n2c(=O)n(C)c3cnc4ccc(-c5ccc6nccn6c5)cc4c32)c(OC)n1` [Example 8.10, 1-(2,6-Dimethoxy-pyridin-3-yl)-8-imidazo[1,2-a]pyridin-6-yl-3-methyl-1,3-dihydro-imidazo[4,5-c]quinolin-2-one] has an IC50 (mTOR; read-out: EPK_mTOR/IC50) of 0.47 µM and an IC50 [2] of 0.0205 µM.

Molecule `COc1ccc(-n2c(=O)n(C)c3cnc4ccc(-c5cnc(N(C)C)nc5)cc4c32)c(Cl)n1` [Example 18.3, 1-(2-Chloro-6-methoxy-pyridin-3-yl)-8-(2-dimethylamino-pyrimidin-5-yl)-3-methyl-1,3-dihydro-imidazo[4,5-c]quinolin-2-one] has an IC50 (mTOR; read-out: EPK_mTOR/IC50) of 0.215 µM and an IC50 [2] of 0.0071 µM.

`CNc1ncc(-c2ccc3ncc4c(c3c2)n(-c2ccc(N(C)C)nc2C)c(=O)n4C)cn1` [Example 19.1, 1-(6-Dimethylamino-2-methyl-pyridin-3-yl)-3-methyl-8-(2-methylamino-pyrimidin-5-yl)-1,3-dihydro-imidazo[4,5-c]quinolin-2-one] showed an IC50 (mTOR; read-out: EPK_mTOR/IC50) of 0.003 µM.

In the case of `CCOc1ccc(-c2ccc3ncc4c(c3c2)n(-c2ccc(N(C)C)nc2C)c(=O)n4C)cn1` [Example 19.3, 1-(6-Dimethylamino-2-methyl-pyridin-3-yl)-8-(6-ethoxy-pyridin-3-yl)-3-methyl-1,3-dihydro-imidazo[4,5-c]quinolin-2-one], the IC50 [1] is reported as 0.0142 µM and the IC50 [2] is reported as 0.0068 µM.
